Patent publication US9561228B2 (Celgene Avilomics Research, Inc., priority 2013, dated 2017)

Columns and labels:
[1] = system: ERK1/2 phosphorylation of p90RSK in HT29 cells; assay: pRSK MSD Assay in HT29 cells; type: cell-based; settings: Homo sapiens, HT-29, read-out: ERK1/ERK2 PRSK MSD HT29 EC50
How it was run: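 Phospho-RSK level, read by electrochemiluminescence on RSK-antibody-coated MSD plates with a phospho-RSK/Sulfo-tag detection pair, reports cellular ERK1/2 activity. HT29 cells, kept overnight in 0.1% FBS medium, were exposed to compound for 120 min at 37° C before lysis.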

[2] = system: HT-29 cells (colorectal adenocarcinoma); assay: Inhibition of cancer cell proliferation, HT-29 (CellTiterGlo, 72 hours); type: cell-based; settings: Homo sapiens
How it was run: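 Proliferation over 72 h at 37° C was read by CellTiterGlo luminescence, translated to cell counts with a cell-density standard curve (390–50,000 cells). Compound added as 3-fold dilutions from a 5,000 nM two-fold stock to 3000 seeded HT-29 cells; GI50 from percent inhibition relative to untreated wells.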

[3] = system: A375 cells (malignant melanoma); assay: Inhibition of cancer cell proliferation, A375 (CellTiterGlo, 72 hours); type: cell-based; settings: Homo sapiens, A-375
Procedure: Measurement of Inhibition of Cancer Cell Proliferation (A375/Malignant Melanoma)
The following protocol used an A375 cell line, which cell line is a model for malignant melanoma. A375 cells were split and 3000 cells in […] of growth medium were added per well of a flat-bottom 96-well plate. A two-fold test compound solution in serum-free DMEM was made, starting at 5,000 nM. Then, 3-fold serial dilutions were made across the plate from well 1 to well 11. Well 12, the last well in a row on the plate, was left as untreated control. 100 μl compound solutions were then transferred to the wells, so the total volume of media was 200 μl per well. Plates were returned to a 37° C. incubator, and the cells were cultured for 72 hours. To measure cell proliferation after 72 hours, media was discarded from the plates, 50 μl/well of fresh medium was added, and 50 μl CellTiterGlo solution was added (Promega Cat#G7573). The plate was covered with a dark lid and incubated for 10 min. A white sealing tape was applied to the bottom of the plate, and the plate was read in a luminescence plate reader. […] 50 μl CellTiterGlo was added per well, and the plate was read in a luminescence plate reader after 10 min. The reading was plotted vs. cell number to generate a standard curve and the equation of the curve fit. The compound-treated sample luminescence readings were converted to cell numbers using the curve-fit equation. The percent of inhibition, using untreated control as 100% growth, was then calculated. GI50 was then calculated by GraphPad Prism.

MEK1 activated ERK1 = target: T1, MEK1 activated ERK1 (Homo sapiens, UniProt P27361); assay: Omnia continuous-read kinase assay for potency against MEK1 activated ERK1; type: biochemical; settings: MEK1 activated ERK1, ATP at KM; read-out: ERK1 Omnia WT ATP KM IC50
T1 construct: purchased Millipore (Billerica, Mass.) 14-439-K
How it was run: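 Apparent IC50 came from initial reaction slopes (RFU vs time) plotted against log inhibitor with a variable-slope fit. Reactions were started with ERK1 (4 nM final) added to 50 μM ATP, roughly at its appKM, and 10 μM Sox-conjugated ST17 peptide in 20 mM Tris pH 7.5, 5 mM MgCl2. Fluorescence was monitored every 71 seconds.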

T1 sequence (P27361 whole entry): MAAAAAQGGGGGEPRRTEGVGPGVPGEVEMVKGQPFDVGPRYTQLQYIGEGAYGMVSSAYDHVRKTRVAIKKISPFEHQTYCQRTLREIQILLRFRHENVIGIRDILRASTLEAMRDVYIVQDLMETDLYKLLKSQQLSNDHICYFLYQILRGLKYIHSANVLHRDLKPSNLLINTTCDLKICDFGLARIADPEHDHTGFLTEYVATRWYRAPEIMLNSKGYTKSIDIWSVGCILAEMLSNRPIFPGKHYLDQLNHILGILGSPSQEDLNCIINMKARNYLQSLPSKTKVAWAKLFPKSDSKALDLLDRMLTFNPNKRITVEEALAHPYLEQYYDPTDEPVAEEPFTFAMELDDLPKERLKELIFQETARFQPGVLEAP

`C=CC(=O)Nc1ccccc1Nc1nc(N[C@H]2CCCN(C(N)=O)C2)ncc1C(F)(F)F` [Compound I-18, (S)-3-((4-((2-Acrylamidophenyl)amino)-5-(trifluoromethyl)pyrimidin-2-yl)amino)piperidine-1-carboxamide] was tested, and the EC50 [1] was 101 to 500 nM, the GI50 [2] was 101 to 500 nM and the GI50 [3] was 101 to 500 nM.

With `O=C(CCCl)Nc1ccccc1Nc1nc(N[C@H]2CCCN(C(=O)CO)C2)ncc1C(F)(F)F` [Compound I-22, (S)-3-Chloro-N-(2-((2-((1-(2-hydroxyacetyl)piperidin-3-yl)amino)-5-(trifluoromethyl)pyrimidin-4-yl)amino)phenyl)propanamide] the IC50 (MEK1 activated ERK1) was 101 to 500 nM, the EC50 [1] was over 1000 nM and the GI50 [2] was 501 to 999 nM. The GI50 [3] was 101 to 500 nM.

Work on `C=CC(=O)Nc1ccc(C)cc1Nc1nc(N[C@H]2CCCN(C(=O)CO)C2)ncc1C(F)(F)F` [Compound I-37, (S)—N-(2-((2-((1-(2-hydroxyacetyl)piperidin-3-yl)amino)-5-(trifluoromethyl)pyrimidin-4-yl)amino)-4-methylphenyl)acrylamide] yielded an EC50 [1] of under 100 nM, a GI50 [2] of under 100 nM and a GI50 [3] of under 100 nM.

`C=CC(=O)Nc1cc(C)ccc1Nc1nc(NC2CCC(=O)CC2)ncc1C(F)(F)F` [Compound I-38, N-(5-Methyl-2-((2-((4-oxocyclohexyl)amino)-5-(trifluoromethyl)pyrimidin-4-yl)amino)phenyl)acrylamide] gave an EC50 [1] of over 1000 nM, a GI50 [2] of 501 to 999 nM and a GI50 [3] of 101 to 500 nM.

Work on `C=CC(=O)Nc1cc(C)ccc1Nc1nc(N[C@H]2CCCN(C(=O)CN)C2)ncc1C(F)(F)F` [Compound I-42, (S)—N-(2-((2-((1-(2-Aminoacetyl)piperidin-3-yl)amino)-5-(trifluoromethyl)pyrimidin-4-yl)amino)-5-methylphenyl)acrylamide] yielded an EC50 [1] of 101 to 500 nM, a GI50 [2] of over 1000 nM and a GI50 [3] of over 1000 nM.

`C=C(C)S(=O)(=O)Nc1ccccc1Nc1nc(N[C@H]2CCCN(C(=O)CO)C2)ncc1C(F)(F)F` [Compound I-46, (S)—N-(2-((2-((1-(2-Hydroxyacetyl)piperidin-3-yl)amino)-5-(trifluoromethyl)pyrimidin-4-yl)amino)phenyl)prop-1-ene-2-sulfonamide] gave an EC50 [1] of 501 to 999 nM, a GI50 [2] of 501 to 999 nM and a GI50 [3] of 501 to 999 nM.

`C=C(C)S(=O)(=O)Nc1cc(C)ccc1Nc1nc(N[C@H]2CCCN(C(=O)CO)C2)ncc1C(F)(F)F` [Compound I-47, (S)—N-(2-((2-((1-(2-Hydroxyacetyl)piperidin-3-yl)amino)-5-(trifluoromethyl)pyrimidin-4-yl)amino)-5-methylphenyl)prop-1-ene-2-sulfonamide] was tested, and the EC50 [1] was 101 to 500 nM, the GI50 [2] was 101 to 500 nM and the GI50 [3] was under 100 nM.

With `C/C=C/S(=O)(=O)Nc1cc(F)ccc1Nc1nc(N[C@H]2CCCN(C(=O)CO)C2)ncc1C(F)(F)F` [Compound I-48, (S,E)-N-(5-Fluoro-2-((2-((1-(2-hydroxyacetyl)piperidin-3-yl)amino)-5-(trifluoromethyl)pyrimidin-4-yl)amino)phenyl)prop-1-ene-1-sulfonamide] the GI50 [2] was over 1000 nM and the GI50 [3] was over 1000 nM.

In the case of `C=CC(=O)Nc1ccccc1Nc1nc(Nc2cc(C(N)=O)ccc2OC)ncc1C(F)(F)F` [Compound I-70, 3-((4-((2-Acrylamidophenyl)amino)-5-(trifluoromethyl)pyrimidin-2-yl)amino)-4-methoxybenzamide], the EC50 [1] is reported as under 100 nM, the GI50 [2] is reported as under 100 nM and the GI50 [3] is reported as under 100 nM.

For `C=CC(=O)Nc1cc(C)ccc1Nc1nc(Nc2cc(C(N)=O)ccc2C)ncc1C(F)(F)F` [Compound I-79, 3-((4-((2-Acrylamido-4-methylphenyl)amino)-5-(trifluoromethyl)pyrimidin-2-yl)amino)-4-methylbenzamide], the IC50 (MEK1 activated ERK1) was 101 to 500 nM, the EC50 [1] was under 100 nM and the GI50 [2] was under 100 nM. The GI50 [3] was under 100 nM.

In the case of `C=CC(=O)Nc1ccccc1Nc1nc(Nc2cc(C(=O)NC)c(F)cc2C)ncc1C(F)(F)F` [Compound I-80, 5-((4-((2-Acrylamidophenyl)amino)-5-(trifluoromethyl)pyrimidin-2-yl)amino)-2-fluoro-N,4-dimethylbenzamide], the IC50 (MEK1 activated ERK1) is reported as 101 to 500 nM, the EC50 [1] is reported as 101 to 500 nM and the GI50 [2] is reported as under 100 nM. For the same molecule, the GI50 [3] was 101 to 500 nM.

`C=CC(=O)Nc1ccccc1Nc1nc(Nc2cc(C(=O)NCCO)c(F)cc2C)ncc1C(F)(F)F` [Compound I-81, 5-((4-((2-Acrylamidophenyl)amino)-5-(trifluoromethyl)pyrimidin-2-yl)amino)-2-fluoro-N-(2-hydroxyethyl)-4-methylbenzamide] gave an IC50 (MEK1 activated ERK1) of 101 to 500 nM, an EC50 [1] of 101 to 500 nM and a GI50 [2] of under 100 nM. The GI50 [3] was under 100 nM.

`C=CC(=O)Nc1ccccc1Nc1nc(NC2CCOCC2)ncc1Cl` [Compound I-108, N-(2-((5-chloro-2-((tetrahydro-2H-pyran-4-yl)amino)pyrimidin-4-yl)amino)phenyl)acrylamide] gave a GI50 [2] of under 100 nM and a GI50 [3] of 101 to 500 nM.

In the case of `C=CC(=O)Nc1ccccc1Nc1nc(N[C@H]2CCCN(C(=O)CC)C2)ncc1Cl` [Compound I-131, (S)—N-(2-((5-chloro-2-((1-propionylpiperidin-3-yl)amino)pyrimidin-4-yl)amino)phenyl)acrylamide], the EC50 [1] is reported as under 100 nM, the GI50 [2] is reported as under 100 nM and the GI50 [3] is reported as under 100 nM.

With `C=CC(=O)Nc1ccccc1Nc1nc(N[C@H]2CCCN(C(=O)[C@@H](C)O)C2)ncc1Cl` [Compound I-134, N-(2-((5-chloro-2-(((S)-1-((R)-2-hydroxypropanoyl)piperidin-3-yl)amino)pyrimidin-4-yl)amino)phenyl)acrylamide] the EC50 [1] was 101 to 500 nM, the GI50 [2] was under 100 nM and the GI50 [3] was under 100 nM.

With `C=CC(=O)Nc1ccccc1Nc1nc(Nc2cc(C(=O)NOC)ccc2C)ncc1Cl` [Compound I-191, 3-((4-((2-acrylamidophenyl)amino)-5-chloropyrimidin-2-yl)amino)-N-methoxy-4-methylbenzamide] the EC50 [1] was 101 to 500 nM, the GI50 [2] was under 100 nM and the GI50 [3] was under 100 nM.

In the case of `C=CC(=O)Nc1cc(C)ccc1Nc1nc(Nc2cc(C(N)=O)ccc2C)ncc1Cl` [Compound I-229, 3-((4-((2-acrylamido-4-methylphenyl)amino)-5-chloropyrimidin-2-yl)amino)-4-methylbenzamide], the EC50 [1] is reported as 101 to 500 nM, the GI50 [2] is reported as under 100 nM and the GI50 [3] is reported as under 100 nM.

`C=CC(=O)Nc1ccccc1Nc1nc(Nc2cc(C(=O)NC)c(F)cc2C)ncc1Cl` [Compound I-231, 5-((4-((2-acrylamidophenyl)amino)-5-chloropyrimidin-2-yl)amino)-2-fluoro-N,4-dimethylbenzamide] gave an IC50 (MEK1 activated ERK1) of 101 to 500 nM, an EC50 [1] of 101 to 500 nM and a GI50 [2] of under 100 nM. The GI50 [3] was under 100 nM.

`CN(C)CCC(=O)Nc1ccccc1Nc1nc(N[C@H]2CCCN(C(=O)CO)C2)ncc1C(F)(F)F` [Compound I-276, (S)-3-(dimethylamino)-N-(2-((2-((1-(2-hydroxyacetyl)piperidin-3-yl)amino)-5-(trifluoromethyl)pyrimidin-4-yl)amino)phenyl)propanamide] gave an EC50 [1] of over 1000 nM, a GI50 [2] of 101 to 500 nM and a GI50 [3] of over 1000 nM.

`NC(=O)c1ccccc1Nc1nc(N[C@H]2CCCN(C(=O)CO)C2)ncc1C(F)(F)F` [Compound I-307, (S)-2-((2-((1-(2-hydroxyacetyl)piperidin-3-yl)amino)-5-(trifluoromethyl)pyrimidin-4-yl)amino)benzamide] showed an EC50 [1] of over 1000 nM, a GI50 [2] of 101 to 500 nM and a GI50 [3] of under 100 nM.

`CC(C)S(=O)(=O)c1ccccc1Nc1nc(N[C@H]2CCCN(C(=O)CO)C2)ncc1C(F)(F)F` [Compound I-310, (S)-2-hydroxy-1-(3-((4-((2-(isopropylsulfonyl)phenyl)amino)-5-(trifluoromethyl)pyrimidin-2-yl)amino)piperidin-1-yl)ethanone] showed an EC50 [1] of 501 to 999 nM, a GI50 [2] of under 100 nM and a GI50 [3] of under 100 nM.

Work on `CCC(=O)Nc1ccccc1Nc1nc(N[C@H]2CCCN(C(C)=O)C2)ncc1C(F)(F)F` [Compound I-317, (S)—N-(2-((2-((1-acetylpiperidin-3-yl)amino)-5-(trifluoromethyl)pyrimidin-4-yl)amino)phenyl)propionamide] yielded an EC50 [1] of over 1000 nM, a GI50 [2] of under 100 nM and a GI50 [3] of under 100 nM.

In the case of `CCC(=O)Nc1ccccc1Nc1nc(N[C@H]2CCCN(C(=O)CO)C2)ncc1C(F)(F)F` [Compound I-318, (S)—N-(2-((2-((1-(2-hydroxyacetyl)piperidin-3-yl)amino)-5-(trifluoromethyl)pyrimidin-4-yl)amino)phenyl)propionamide], the EC50 [1] is reported as 501 to 999 nM, the GI50 [2] is reported as 101 to 500 nM and the GI50 [3] is reported as under 100 nM.
